According to patent publication US20240360177A1, “PEPTIDES WITH ANTIMICROBIAL ACTIVITIES” (priority 2021, published 2024):
≈ marks a conversion by molar mass, not a printed value. Like-named read-outs stand apart in the source and are kept apart here. Non-standard residues stand in square brackets, D forms with d. Residues, ends and D or L forms follow the SMILES beside them. hArg = N=C(N)NCCCC[C@H](N)C(=O)O; 4Pal = N[C@@H](Cc1ccncc1)C(=O)O; hLeu = CC(C)CC[C@H](N)C(=O)O; Inp = O=C(O)C1CCNCC1; Ava = NCCCCC(=O)O

Legend:
C. neoformans = settings: 72 h
C. gattii = settings: 72 h
Scedosporium spp. = settings: 72 h
[1] = N = 15 strains, 24 h (Table 13)
[2] = N = 15 strains, 48 h (Table 13)

| MIC C. tropicalis (C. tropicalis; 24 h) | MIC C. parapsilosis (C. parapsilosis; 24 h) | MIC C. glabrata (C. glabrata; 24 h) | MIC C. dubliniensis (C. dubliniensis; 24 h) | MIC C. auris (C. auris; 24 h) | MIC C. krusei (C. krusei; 24 h) | MIC C. albicans (C. albicans; 24 h) | Compound | further results |
| --- | --- | --- | --- | --- | --- | --- | --- | --- |
| 1 µg/mL (≈ 0.533 µM) | 0.25 µg/mL (≈ 0.133 µM) | 4 µg/mL (≈ 2.13 µM) | 1 µg/mL (≈ 0.533 µM) | >32 µg/mL | 4 µg/mL (≈ 2.13 µM) | 2 µg/mL (≈ 1.07 µM) | N=C(N)NCCC[C@@H](N)C(=O)N[C@@H](CCCNC(=N)N)C(=O)NCCCCC(=O)N[C@H](CCCNC(=N)N)C(=O)N[C@@H](CCCNC(=N)N)C(=O)N[C@H](CCCNC(=N)N)C(=O)NCCCCC(=O)N[C@H](CCCNC(=N)N)C(=O)N[C@@H](CCCNC(=N)N)C(=O)N[C@H](CCCNC(=N)N)C(=O)NCCCCC(=O)N[C@H](CCCNC(=N)N)C(=O)N[C@@H](CCCNC(=N)N)C(N)=O [SEQ ID NO: 23, rR-(Ava)-rRr-(Ava)-rRr-(Ava)-rR-NH2] (H-[dR]R[Ava][dR]R[dR][Ava][dR]R[dR][Ava][dR]R-NH2) | MIC C. neoformans (C. neoformans): 8 µg/mL (≈ 4.26 µM); MIC C. gattii (C. gattii): 2 µg/mL (≈ 1.07 µM); MIC Range Scedosporium spp. (Scedosporium spp.): 16 to 32 µg/mL; MIC Range Lomentospora prolificans (Lomentospora prolificans): >32 µg/mL |
| 0.25 µg/mL (≈ 0.104 µM) | 0.25 µg/mL (≈ 0.104 µM) | 0.5 µg/mL (≈ 0.209 µM) | 0.25 µg/mL (≈ 0.104 µM) | 1 µg/mL (≈ 0.417 µM) | 0.5 µg/mL (≈ 0.209 µM) | 0.25 µg/mL (≈ 0.104 µM) | N=C(N)NCCC[C@@H](N)C(=O)N[C@@H](CCCNC(=N)N)C(=O)N[C@H](CCCNC(=N)N)C(=O)N[C@@H](CCCNC(=N)N)C(=O)N[C@H](CCCNC(=N)N)C(=O)N1CCC[C@H]1C(=O)N[C@H](CCCNC(=N)N)C(=O)N[C@@H](CCCNC(=N)N)C(=O)N[C@H](CCCNC(=N)N)C(=O)N[C@@H](CCCNC(=N)N)C(=O)N[C@H](CCCNC(=N)N)C(=O)N1CCC[C@H]1C(=O)N[C@H](CCCNC(=N)N)C(=O)N[C@@H](CCCNC(=N)N)C(=O)N[C@H](CCCNC(=N)N)C(=O)N[C@@H](CCCNC(=N)N)C(N)=O [SEQ ID NO: 61, rRrRr-P-rRrRr-P-rRrR-NH2] (H-[dR]R[dR]R[dR]P[dR]R[dR]R[dR]P[dR]R[dR]R-NH2) | Activity at 24 h MIC50 against Candida spp. (Candida spp.; 24 h): 0.5 µg/mL; Activity at 24 h MIC90 against Candida spp. (Candida spp.; 24 h): 1 µg/mL; Activity at 48 h MIC50 against Candida spp. (Candida spp.; 48 h): 0.5 µg/mL; Activity at 48 h MIC90 against Candida spp. (Candida spp.; 48 h): 16 µg/mL |
| 0.5 µg/mL (≈ 0.24 µM) | 0.25 µg/mL (≈ 0.12 µM) | 0.5 µg/mL (≈ 0.24 µM) | 0.25 µg/mL (≈ 0.12 µM) | 4 µg/mL (≈ 1.92 µM) | 0.5 µg/mL (≈ 0.24 µM) | 0.25 µg/mL (≈ 0.12 µM) | N=C(N)NCCC[C@@H](N)C(=O)N[C@@H](CCCNC(=N)N)C(=O)N[C@H](CCCNC(=N)N)C(=O)N[C@@H](CCCNC(=N)N)C(=O)N1CCC[C@H]1C(=O)N[C@H](CCCNC(=N)N)C(=O)N[C@@H](CCCNC(=N)N)C(=O)N[C@H](CCCNC(=N)N)C(=O)N[C@@H](CCCNC(=N)N)C(=O)N1CCC[C@H]1C(=O)N[C@H](CCCNC(=N)N)C(=O)N[C@@H](CCCNC(=N)N)C(=O)N[C@H](CCCNC(=N)N)C(=O)N[C@@H](CCCNC(=N)N)C(N)=O [SEQ ID NO: 67, rRrR-P-rRrR-P-rRrR-NH2] (H-[dR]R[dR]RP[dR]R[dR]RP[dR]R[dR]R-NH2) | – |
| 0.5 µg/mL (≈ 0.197 µM) | 0.25 µg/mL (≈ 0.0985 µM) | 0.5 µg/mL (≈ 0.197 µM) | 0.5 µg/mL (≈ 0.197 µM) | 0.5 µg/mL (≈ 0.197 µM) | 1 µg/mL (≈ 0.394 µM) | 0.5 µg/mL (≈ 0.197 µM) | N=C(N)NCCC[C@@H](N)C(=O)N[C@@H](CCCNC(=N)N)C(=O)N[C@H](CCCNC(=N)N)C(=O)N1CCC(C(=O)N[C@H](CCCNC(=N)N)C(=O)N[C@@H](CCCNC(=N)N)C(=O)N[C@H](CCCNC(=N)N)C(=O)N2CCC(C(=O)N[C@H](CCCNC(=N)N)C(=O)N[C@@H](CCCNC(=N)N)C(=O)N[C@H](CCCNC(=N)N)C(=O)N[C@@H](CCCNC(=N)N)C(=O)N3CCC(C(=O)N[C@H](CCCNC(=N)N)C(=O)N[C@@H](CCCNC(=N)N)C(=O)N[C@H](CCCNC(=N)N)C(=O)N[C@@H](CCCNC(=N)N)C(N)=O)CC3)CC2)CC1 [SEQ ID NO: 74, rRr-(Inp)-rRr-(Inp)-rRrR-(Inp)-rRrR-NH2] (H-[dR]R[dR][Inp][dR]R[dR][Inp][dR]R[dR]R[Inp][dR]R[dR]R-NH2) | – |
| 0.5 µg/mL (≈ 0.203 µM) | 0.25 µg/mL (≈ 0.101 µM) | 0.5 µg/mL (≈ 0.203 µM) | 0.5 µg/mL (≈ 0.203 µM) | 1 µg/mL (≈ 0.406 µM) | 1 µg/mL (≈ 0.406 µM) | 0.5 µg/mL (≈ 0.203 µM) | CC(C)CC[C@H](N)C(=O)N[C@@H](CCCNC(=N)N)C(=O)N[C@H](CCCNC(=N)N)C(=O)N1CCC[C@H]1C(=O)N[C@H](CCCNC(=N)N)C(=O)N[C@@H](CCCNC(=N)N)C(=O)N[C@H](CCCNC(=N)N)C(=O)N1CCC[C@H]1C(=O)N[C@H](CCCNC(=N)N)C(=O)N[C@@H](CCCNC(=N)N)C(=O)N[C@H](CCCNC(=N)N)C(=O)N[C@@H](CCCNC(=N)N)C(=O)N1CCC[C@H]1C(=O)N[C@H](CCCNC(=N)N)C(=O)N[C@@H](CCCNC(=N)N)C(=O)N[C@H](CCCNC(=N)N)C(=O)N[C@@H](CCCNC(=N)N)C(N)=O [SEQ ID NO: 94, (hLeu)Rr-P-rRr-P-rRrR-P-rRrR-NH2] (H-[hLeu]R[dR]P[dR]R[dR]P[dR]R[dR]RP[dR]R[dR]R-NH2) | – |

Further lines, the compound ahead of its results:

| Compound | MIC C. tropicalis (C. tropicalis; 24 h) | MIC C. parapsilosis (C. parapsilosis; 24 h) | MIC C. glabrata (C. glabrata; 24 h) | MIC C. dubliniensis (C. dubliniensis; 24 h) | MIC C. auris (C. auris; 24 h) | MIC C. krusei (C. krusei; 24 h) | MIC C. albicans (C. albicans; 24 h) | further results |
| --- | --- | --- | --- | --- | --- | --- | --- | --- |
| N=C(N)NCCC[C@@H](N)C(=O)N[C@@H](CCCNC(=N)N)C(=O)N[C@H](CCCNC(=N)N)C(=O)N[C@H](CCCNC(=N)N)C(=O)N[C@@H](CCCNC(=N)N)C(=O)N[C@H](CCCNC(=N)N)C(=O)N[C@H](CCCNC(=N)N)C(=O)N[C@@H](CCCNC(=N)N)C(=O)N[C@H](CCCNC(=N)N)C(=O)N[C@@H](CCCNC(=N)N)C(=O)N[C@H](CCCNC(=N)N)C(=O)N[C@@H](CCCNC(=N)N)C(=O)N[C@H](CCCNC(=N)N)C(=O)N[C@@H](CCCNC(=N)N)C(N)=O [14 Polyarginine, rRrrRrrRrRrRrR-NH2, reference compound] | – | – | – | – | – | – | – | Activity at 24 h MIC50 against Candida spp. (Candida spp.; [1]): 0.5 µg/mL; Activity at 24 h MIC90 against Candida spp. (Candida spp.; [1]): 8 µg/mL; Activity at 48 h MIC50 against Candida spp. (Candida spp.; [2]): 0.5 µg/mL; Activity at 48 h MIC90 against Candida spp. (Candida spp.; [2]): >32 µg/mL |
| N=C(N)NCCC[C@@H](N)C(=O)N[C@@H](CCCNC(=N)N)C(=O)N[C@H](CCCNC(=N)N)C(=O)N[C@@H](Cc1ccncc1)C(=O)N[C@H](CCCNC(=N)N)C(=O)N[C@@H](CCCNC(=N)N)C(=O)N[C@H](CCCNC(=N)N)C(=O)N[C@@H](Cc1ccncc1)C(=O)N[C@H](CCCNC(=N)N)C(=O)N[C@@H](CCCNC(=N)N)C(=O)N[C@H](CCCNC(=N)N)C(=O)N[C@@H](CCCNC(=N)N)C(=O)N[C@@H](Cc1ccncc1)C(=O)N[C@H](CCCNC(=N)N)C(=O)N[C@@H](CCCNC(=N)N)C(=O)N[C@H](CCCNC(=N)N)C(=O)N[C@@H](CCCNC(=N)N)C(N)=O [SEQ ID NO: 77, rRr-(4-PyrAla)-rRr-(4-PyrAla)-rRrR-(4-PyrAla)-rRrR-NH2] (H-[dR]R[dR][4Pal][dR]R[dR][4Pal][dR]R[dR]R[4Pal][dR]R[dR]R-NH2) | 0.5 µg/mL (≈ 0.189 µM) | 0.25 µg/mL (≈ 0.0944 µM) | 0.5 µg/mL (≈ 0.189 µM) | 0.5 µg/mL (≈ 0.189 µM) | 0.5 µg/mL (≈ 0.189 µM) | 0.5 µg/mL (≈ 0.189 µM) | 0.5 µg/mL (≈ 0.189 µM) | – |
| N=C(N)NCCC[C@@H](N)C(=O)N[C@@H](CCCNC(=N)N)C(=O)N[C@@H](Cc1ccncc1)C(=O)N[C@H](CCCNC(=N)N)C(=O)N[C@@H](CCCNC(=N)N)C(=O)N[C@@H](Cc1ccncc1)C(=O)N[C@H](CCCNC(=N)N)C(=O)N[C@@H](CCCNC(=N)N)C(=O)N[C@H](CCCNC(=N)N)C(=O)N[C@@H](Cc1ccncc1)C(=O)N[C@H](CCCNC(=N)N)C(=O)N[C@@H](CCCNC(=N)N)C(=O)N[C@H](CCCNC(=N)N)C(N)=O [SEQ ID NO: 78, rR-(4-PyrAla)-rR-(4-PyrAla)-rRr-(4-PyrAla)-rRr-NH2] (H-[dR]R[4Pal][dR]R[4Pal][dR]R[dR][4Pal][dR]R[dR]-NH2) | 0.5 µg/mL (≈ 0.247 µM) | 0.25 µg/mL (≈ 0.124 µM) | 0.5 µg/mL (≈ 0.247 µM) | 0.25 µg/mL (≈ 0.124 µM) | 16 µg/mL (≈ 7.91 µM) | 1 µg/mL (≈ 0.494 µM) | 0.5 µg/mL (≈ 0.247 µM) | – |
| N=C(N)NCCCC[C@H](NC(=O)[C@@H](CCCNC(=N)N)NC(=O)[C@H](CCCCNC(=N)N)NC(=O)[C@@H](CCCNC(=N)N)NC(=O)CCCCNC(=O)[C@H](CCCCNC(=N)N)NC(=O)[C@@H](CCCNC(=N)N)NC(=O)[C@H](CCCCNC(=N)N)NC(=O)[C@@H](CCCNC(=N)N)NC(=O)CCCCNC(=O)[C@@H](CCCNC(=N)N)NC(=O)[C@H](CCCCNC(=N)N)NC(=O)[C@@H](CCCNC(=N)N)NC(=O)CCCCNC(=O)[C@@H](CCCNC(=N)N)NC(=O)[C@H](CCCCNC(=N)N)NC(=O)[C@H](N)CCCNC(=N)N)C(N)=O [SEQ ID NO: 89, r(Har)r-(Ava)-r(Har)r-(Ava)-r(Har)r(Har)-(Ava)-r(Har)r(Har)-NH2] (H-[dR][hArg][dR][Ava][dR][hArg][dR][Ava][dR][hArg][dR][hArg][Ava][dR][hArg][dR][hArg]-NH2) | 1 µg/mL (≈ 0.387 µM) | 0.5 µg/mL (≈ 0.193 µM) | 1 µg/mL (≈ 0.387 µM) | 1 µg/mL (≈ 0.387 µM) | 0.5 µg/mL (≈ 0.193 µM) | 1 µg/mL (≈ 0.387 µM) | 1 µg/mL (≈ 0.387 µM) | MIC C. neoformans (C. neoformans): 0.25 µg/mL (≈ 0.0967 µM); MIC C. gattii (C. gattii): 0.25 µg/mL (≈ 0.0967 µM) |
| rRr-(Apg)-rRr-(Apg)-rRrR-(Apg)-rRrR-NH2 [SEQ ID NO: 38] | 0.5 µg/mL | 0.25 µg/mL | 1 µg/mL | 0.5 µg/mL | 2 µg/mL | 0.25 µg/mL | 0.5 µg/mL | – |
| rRr-(Igl)-rRr-(Igl)-rRrR-(Igl)-rRrR-NH2 [SEQ ID NO: 75] | – | – | – | – | – | – | – | MIC C. tropicalis (C. tropicalis): 0.5 µg/mL; MIC C. parapsilosis (C. parapsilosis): 0.5 µg/mL; MIC C. glabrata (C. glabrata): 0.5 µg/mL; MIC C. dubliniensis (C. dubliniensis): 0.5 µg/mL; MIC C. auris (C. auris): 0.5 µg/mL; MIC C. krusei (C. krusei): 0.5 µg/mL; MIC C. albicans (C. albicans): 0.5 µg/mL |
